The text below walks through data of ChEMBL document CHEMBL3991601, “The target landscape of clinical kinase drugs” (Science, 2017).

Active and inactive are the calls of the source. Cut-off read from the data, not from the text of the source, for most assays here: actives have a measured Kd and inactives only a lower limit.

Usually Kd stands for the free concentration of one partner at which half of the binding sites on the other are occupied at equilibrium, for simple one-to-one binding.

In one assay the target is T1, Septin-9 (Homo sapiens, UniProt Q9UHD8).
T1 sequence (Q9UHD8 whole entry): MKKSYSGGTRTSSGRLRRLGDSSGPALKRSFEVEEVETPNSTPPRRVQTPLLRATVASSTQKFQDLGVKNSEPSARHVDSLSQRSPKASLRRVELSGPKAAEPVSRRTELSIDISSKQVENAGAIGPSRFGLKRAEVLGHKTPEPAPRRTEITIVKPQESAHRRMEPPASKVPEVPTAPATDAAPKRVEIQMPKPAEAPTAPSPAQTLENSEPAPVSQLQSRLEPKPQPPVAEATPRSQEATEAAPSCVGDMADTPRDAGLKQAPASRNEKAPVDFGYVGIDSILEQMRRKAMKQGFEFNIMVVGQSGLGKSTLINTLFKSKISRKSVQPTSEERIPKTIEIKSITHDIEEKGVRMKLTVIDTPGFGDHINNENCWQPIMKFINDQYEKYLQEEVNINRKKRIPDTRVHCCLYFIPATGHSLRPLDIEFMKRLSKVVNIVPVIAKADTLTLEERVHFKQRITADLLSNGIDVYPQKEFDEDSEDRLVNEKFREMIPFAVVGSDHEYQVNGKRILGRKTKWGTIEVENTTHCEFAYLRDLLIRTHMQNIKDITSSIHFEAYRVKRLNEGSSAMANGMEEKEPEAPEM

The target of another assay is GTP-binding protein 4 (Homo sapiens, UniProt Q9BZE4).
Assay [1] addresses Rho-associated protein kinase 1 (Homo sapiens, UniProt Q13464).
The target in assay [2] is Casein kinase I isoform alpha (Homo sapiens, UniProt P48729).
The target in assay [3] is T2, Serine/threonine-protein kinase TAO2 (Homo sapiens, UniProt Q9UL54).
T2 sequence (Q9UL54 whole entry): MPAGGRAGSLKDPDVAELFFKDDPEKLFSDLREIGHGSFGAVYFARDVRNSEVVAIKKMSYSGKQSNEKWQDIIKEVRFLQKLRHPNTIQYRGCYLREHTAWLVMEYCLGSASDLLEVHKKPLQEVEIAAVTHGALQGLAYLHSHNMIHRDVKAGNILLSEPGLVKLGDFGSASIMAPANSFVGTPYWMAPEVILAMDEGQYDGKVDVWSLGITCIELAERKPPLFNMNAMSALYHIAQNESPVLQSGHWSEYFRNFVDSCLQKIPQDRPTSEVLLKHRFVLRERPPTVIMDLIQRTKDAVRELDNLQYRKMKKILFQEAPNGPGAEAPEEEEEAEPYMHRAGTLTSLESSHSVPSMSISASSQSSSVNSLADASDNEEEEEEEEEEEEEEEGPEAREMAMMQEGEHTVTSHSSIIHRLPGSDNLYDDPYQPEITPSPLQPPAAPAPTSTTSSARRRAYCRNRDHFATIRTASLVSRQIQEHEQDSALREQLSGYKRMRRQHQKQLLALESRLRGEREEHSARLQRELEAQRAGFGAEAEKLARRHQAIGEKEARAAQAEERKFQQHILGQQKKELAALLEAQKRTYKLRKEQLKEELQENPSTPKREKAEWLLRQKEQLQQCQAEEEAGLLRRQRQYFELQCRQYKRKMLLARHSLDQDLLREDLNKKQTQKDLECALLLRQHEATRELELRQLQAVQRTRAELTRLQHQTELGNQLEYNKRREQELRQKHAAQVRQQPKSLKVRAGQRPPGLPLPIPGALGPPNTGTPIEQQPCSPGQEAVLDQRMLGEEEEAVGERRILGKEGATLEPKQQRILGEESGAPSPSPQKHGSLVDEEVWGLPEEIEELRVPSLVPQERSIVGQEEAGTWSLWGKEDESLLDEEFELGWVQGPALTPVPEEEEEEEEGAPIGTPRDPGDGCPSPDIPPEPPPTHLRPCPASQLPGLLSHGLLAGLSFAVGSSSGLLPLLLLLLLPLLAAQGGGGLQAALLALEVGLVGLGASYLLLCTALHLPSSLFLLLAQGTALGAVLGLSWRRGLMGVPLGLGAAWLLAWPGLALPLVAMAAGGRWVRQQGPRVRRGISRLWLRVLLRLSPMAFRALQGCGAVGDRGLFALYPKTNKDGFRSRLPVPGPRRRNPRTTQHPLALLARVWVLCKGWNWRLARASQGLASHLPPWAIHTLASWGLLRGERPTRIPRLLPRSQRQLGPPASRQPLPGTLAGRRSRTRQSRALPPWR

The target of assay [4] is T3, Serine/threonine-protein kinase ULK3 (Homo sapiens, UniProt Q6PHR2).
T3 sequence (Q6PHR2 whole entry): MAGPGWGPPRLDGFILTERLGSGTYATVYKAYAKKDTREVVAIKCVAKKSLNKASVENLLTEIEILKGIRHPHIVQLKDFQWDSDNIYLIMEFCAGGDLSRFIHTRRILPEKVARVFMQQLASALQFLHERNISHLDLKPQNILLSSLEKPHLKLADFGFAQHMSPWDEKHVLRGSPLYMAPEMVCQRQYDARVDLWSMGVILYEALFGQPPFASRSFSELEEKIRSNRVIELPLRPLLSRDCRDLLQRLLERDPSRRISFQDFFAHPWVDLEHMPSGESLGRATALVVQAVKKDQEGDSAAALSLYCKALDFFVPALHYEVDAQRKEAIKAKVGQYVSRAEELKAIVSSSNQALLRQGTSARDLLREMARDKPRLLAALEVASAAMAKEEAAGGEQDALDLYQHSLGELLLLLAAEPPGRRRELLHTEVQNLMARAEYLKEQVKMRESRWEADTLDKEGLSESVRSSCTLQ

Another assay concerns the target T4, Activin receptor type-1B (Homo sapiens, UniProt P36896).
T4 sequence (P36896 whole entry): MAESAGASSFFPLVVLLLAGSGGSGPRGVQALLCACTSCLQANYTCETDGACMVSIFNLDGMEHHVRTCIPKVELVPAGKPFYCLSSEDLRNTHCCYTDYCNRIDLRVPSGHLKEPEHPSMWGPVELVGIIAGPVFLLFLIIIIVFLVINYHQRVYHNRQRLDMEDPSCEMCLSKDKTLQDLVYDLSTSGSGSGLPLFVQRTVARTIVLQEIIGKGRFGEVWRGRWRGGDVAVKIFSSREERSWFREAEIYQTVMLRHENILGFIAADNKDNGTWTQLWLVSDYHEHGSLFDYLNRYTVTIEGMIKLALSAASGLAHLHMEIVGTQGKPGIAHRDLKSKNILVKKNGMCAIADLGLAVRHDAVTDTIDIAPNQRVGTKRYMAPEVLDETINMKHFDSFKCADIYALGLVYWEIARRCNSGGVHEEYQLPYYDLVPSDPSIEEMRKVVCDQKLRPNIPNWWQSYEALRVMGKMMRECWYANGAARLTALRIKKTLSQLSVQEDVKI

For assay [5], the target named is Tyrosine-protein kinase JAK1 (Homo sapiens, UniProt P23458).
Note: in the data inactive means no Kd found up to 30 µM.

Sequence of Casein kinase I isoform alpha (P48729 whole entry, canonical isoform): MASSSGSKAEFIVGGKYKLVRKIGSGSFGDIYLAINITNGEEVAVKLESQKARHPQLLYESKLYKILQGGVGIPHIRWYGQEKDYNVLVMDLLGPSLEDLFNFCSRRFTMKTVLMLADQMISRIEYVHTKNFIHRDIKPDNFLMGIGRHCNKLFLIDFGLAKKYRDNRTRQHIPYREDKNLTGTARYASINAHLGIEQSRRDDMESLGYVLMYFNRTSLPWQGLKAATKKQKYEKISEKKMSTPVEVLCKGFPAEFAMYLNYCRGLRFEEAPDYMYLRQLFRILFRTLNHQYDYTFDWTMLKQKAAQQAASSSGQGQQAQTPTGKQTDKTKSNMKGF
Sequence of Rho-associated protein kinase 1 (Q13464 whole entry, canonical isoform): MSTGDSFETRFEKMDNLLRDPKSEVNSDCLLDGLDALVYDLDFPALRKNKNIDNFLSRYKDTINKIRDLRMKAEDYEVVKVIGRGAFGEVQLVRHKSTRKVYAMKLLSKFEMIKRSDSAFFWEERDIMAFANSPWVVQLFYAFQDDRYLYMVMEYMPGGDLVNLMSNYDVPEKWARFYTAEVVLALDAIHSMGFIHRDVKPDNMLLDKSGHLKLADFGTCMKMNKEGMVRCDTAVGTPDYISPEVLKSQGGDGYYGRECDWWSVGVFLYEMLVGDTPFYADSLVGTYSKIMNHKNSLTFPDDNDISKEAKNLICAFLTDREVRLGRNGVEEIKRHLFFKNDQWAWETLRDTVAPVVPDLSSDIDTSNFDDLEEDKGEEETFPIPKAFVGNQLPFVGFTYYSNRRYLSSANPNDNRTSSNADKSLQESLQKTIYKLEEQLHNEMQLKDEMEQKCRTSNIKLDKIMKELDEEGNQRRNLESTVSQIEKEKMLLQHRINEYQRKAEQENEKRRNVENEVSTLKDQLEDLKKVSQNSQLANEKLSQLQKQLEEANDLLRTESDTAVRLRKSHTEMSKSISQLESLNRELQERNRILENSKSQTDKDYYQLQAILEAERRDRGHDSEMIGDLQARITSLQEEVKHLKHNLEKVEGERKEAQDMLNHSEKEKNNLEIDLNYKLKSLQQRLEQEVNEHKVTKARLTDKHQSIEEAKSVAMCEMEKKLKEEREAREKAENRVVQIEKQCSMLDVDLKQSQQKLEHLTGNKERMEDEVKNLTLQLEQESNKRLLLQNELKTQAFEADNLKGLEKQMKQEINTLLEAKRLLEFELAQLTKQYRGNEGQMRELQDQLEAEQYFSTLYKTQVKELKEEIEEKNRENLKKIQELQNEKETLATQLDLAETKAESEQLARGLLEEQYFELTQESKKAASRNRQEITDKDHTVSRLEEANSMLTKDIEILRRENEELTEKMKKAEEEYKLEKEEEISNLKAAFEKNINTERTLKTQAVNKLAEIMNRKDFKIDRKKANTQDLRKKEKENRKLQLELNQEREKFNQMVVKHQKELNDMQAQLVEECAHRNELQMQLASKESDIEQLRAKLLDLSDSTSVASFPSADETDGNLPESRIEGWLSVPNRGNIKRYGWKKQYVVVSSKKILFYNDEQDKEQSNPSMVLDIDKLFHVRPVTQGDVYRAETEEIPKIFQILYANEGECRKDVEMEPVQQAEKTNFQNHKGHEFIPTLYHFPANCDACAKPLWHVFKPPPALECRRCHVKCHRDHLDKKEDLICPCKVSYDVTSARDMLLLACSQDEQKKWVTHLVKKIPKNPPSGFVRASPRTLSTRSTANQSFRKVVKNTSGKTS
Sequence of Tyrosine-protein kinase JAK1 (P23458 whole entry): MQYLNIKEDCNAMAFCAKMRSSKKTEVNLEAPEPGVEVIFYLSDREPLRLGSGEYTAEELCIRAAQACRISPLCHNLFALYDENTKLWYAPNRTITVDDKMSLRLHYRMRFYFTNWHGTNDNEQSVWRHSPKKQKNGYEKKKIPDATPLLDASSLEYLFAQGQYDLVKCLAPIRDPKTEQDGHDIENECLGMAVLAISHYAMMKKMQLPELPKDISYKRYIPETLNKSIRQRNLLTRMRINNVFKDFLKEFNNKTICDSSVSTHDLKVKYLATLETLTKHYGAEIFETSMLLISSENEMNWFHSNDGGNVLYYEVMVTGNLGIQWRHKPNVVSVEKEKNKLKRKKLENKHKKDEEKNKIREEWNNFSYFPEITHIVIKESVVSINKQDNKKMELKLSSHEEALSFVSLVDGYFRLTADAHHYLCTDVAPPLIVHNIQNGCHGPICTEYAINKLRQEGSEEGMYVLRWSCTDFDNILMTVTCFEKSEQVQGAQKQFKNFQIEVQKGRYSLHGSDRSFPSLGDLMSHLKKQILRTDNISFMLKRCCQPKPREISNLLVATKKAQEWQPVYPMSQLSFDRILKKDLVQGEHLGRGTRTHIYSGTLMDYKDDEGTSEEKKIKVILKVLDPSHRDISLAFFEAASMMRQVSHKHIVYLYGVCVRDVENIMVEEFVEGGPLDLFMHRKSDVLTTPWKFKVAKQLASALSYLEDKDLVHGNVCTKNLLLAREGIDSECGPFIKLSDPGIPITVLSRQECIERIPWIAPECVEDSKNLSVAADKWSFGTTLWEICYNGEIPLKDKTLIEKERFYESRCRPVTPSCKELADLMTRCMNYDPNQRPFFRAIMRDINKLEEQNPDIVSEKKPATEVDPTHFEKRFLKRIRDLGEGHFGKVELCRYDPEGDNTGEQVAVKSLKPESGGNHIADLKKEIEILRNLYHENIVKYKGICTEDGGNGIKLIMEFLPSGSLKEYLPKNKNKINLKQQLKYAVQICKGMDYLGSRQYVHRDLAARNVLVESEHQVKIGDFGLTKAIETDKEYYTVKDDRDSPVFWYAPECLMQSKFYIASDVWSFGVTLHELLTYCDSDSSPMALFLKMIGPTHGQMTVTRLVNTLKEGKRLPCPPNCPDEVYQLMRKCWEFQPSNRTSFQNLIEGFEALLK

Turning to `Cc1cc(-c2cc(O)ccc2Cl)cc2nnc(Nc3ccc(OCCN4CCCC4)cc3)nc12`, the Kd (on Septin-9; at GTP-binding protein 4; in assay [1]; in assay [2]; in assay [3]; in assay [4]) was > 30 µM (inactive) in each case. In addition, the results for the Kd (at Activin receptor type-1B; in assay [5]) were 0.001 µM (active) and > 30 µM (inactive), respectively.
